In patent US11311560B2, “Cyclic plasmenylethanolamines” (MED-LIFE DISCOVERIES LP, priority 2017, dated 2022):
Several values for one entry are separate records, joined by “and”; a condition that tells them apart may be missing. Identical values can stand only once. Entries after “also recorded” stand apart in the source; their conditions may differ.

Columns and labels:
Assay type in all cases: in vivo, mouse
Pex7 hypomorph/null mice [1] = test: 4 weeks oral treatment of Pex7 hypomorph/null animals: plasmalogen levels in plasma and tissues; conditions: 50 mg/kg oral gavage, 5 days per week
Description: (§1) The Pex7 hypomorph/null model is a hypomorphic (B6;129S6-Pex7^tm2.3Brav/s9) mouse model on a mixed background (C57BL/6NCrl and 129S6/SvEvTac). The hypomorphic allele in Pex7 hypomorph/null was generated by inserting an inverse neo cassette into intron 2 and lox P sites surrounding exon 3. The Pex7 null allele was generated using (B6.C-Tg(cmv-cre)1Cgn/J) mouse. The Pex7 hypomorph/null mouse model has 90% survival, 0.016-0.257% of wild type Pex7 mRNA levels and 20-30% plasmalogen levels Pex7 hypomoprh/null mice (3-4 months); and wild-type animals, males and females included in treatments and behavioral tests. Pex7 hypomorph/null mice were randomly assigned, after a baseline open field test, into 3 treatment groups: PPI-1040, PPI-1011, and vehicle controls, n=6 mice per group). PPI-1011 or PPI-1040 at 50 mg/kg was given by oral gavage 5 days per week (Monday-Friday) for 4 weeks. During the treatment period, animals were weighed weekly and observed for signs of distress. The open field test was performed at the end of treatment. To avoid selection bias, data analysis was performed only at the study end. Animals were sacrificed after a 24-hour post the last dose.
Tissue samples frozen by submersion in liquid nitrogen were homogenized using the Covaris Cryoprep resulting in a fine powder. The powder was then aliquoted using anti-static polypropylene disposable milligram scoops (TWD Tradewinds) resulting in 4-6 mg of tissue per 1.4 ml Thermo matrix tubes. Weights were recorded and metabolite levels were normalized per mg of tissue. HPLC grade water (50 μl) was added into each tube and samples were snap frozen in liquid nitrogen and then stored at −80° C. until extraction. On the day of the extraction, tissue samples were thawed to room temperate and sonicated for 15 mins in an ice bath before mixing at 2000 rpm for a 5 minute and then adding 600 μL of ethyl acetate. Lipids were extracted into ethyl acetate by mixing at 1750 rpm for 1 hr followed by a 10 min centrifugation at 3500 rpm to obtain a clear ethyl acetate layer. Tissue lipid extracts were diluted into an ethyl acetate stock (brain regions diluted 1:10, peripheral tissues 1:5) containing labeled internal standard [^13C-PlsEtn (C37^13C6H74NO7P). Water (40 μL) was added to the diluted extracts and samples were stirred at 1500 rpm for 1 hr followed by a 2 min centrifugation at 3500 rpm.
Plasma extraction was performed on 20 μL aliquots in 1.4 ml Thermo matrix tubes. Lipids were extracted by adding HPLC grade water (50 μl) and ethyl acetate containing labeled internal standard [^13C-PlsEtn (C37^13C6H74NO7P) at 0.2 μg/mL (500 μL) to each plasma sample and then mixing at 1750 rpm for 1 hr followed by a 2 min centrifugation at 3500 rpm for phase separation.
A 100 μL aliquot of the ethyl acetate layer was analyzed using FI-MS/MS on a API4000™ mass spectrometer (Applied Biosystems) coupled with Agilent 1100 HPLC pump and auto sampler. Each transition was scanned for 50 ms with a total acquisition time per sample of 2 min. ethyl acetate:methanol:water ratio of 80:15:5 at a flow rate of 600 μL/min was used as the mobile phase. All standards and stable isotopes used were >95% pure and manufactured by Med-Life Discoveries LP. All the solvents used above were HPLC grade. All samples were analyzed in triplicate to control for any variation resulting from instrument variability. Stable isotope ratios for each analyte were calculated for all tissue and plasma samples (Table 2).

[2] = test system: Pex7 homozygous hypomorphic animals (Pex7^neo/neo); test: Sub-chronic (9 weeks) dosing with PPI-1040: plasmalogen levels in plasma, liver, lung; conditions: 89.7 mg/Kg intraperitoneal, 3 doses per week
Experimental: Pex7 homozygous hypomorphic animals)(Pex7^neo/neo) were used as a model of rhizomelic chondrodysplasia punctata to further test the ability of PPI-1040 to augment plasmalogen levels in a deficient system, following 9 weeks of sub-chronic dosing. PPI-1040 was stored in a sealed ampoule in solution with dichloromethane under argon gas until immediately before use. At time of treatment the ampoule was opened and dichloromethane was evaporated off under nitrogen gas for 10 minutes. Neobee M-5 was then added and the solution vortexed to generate a 22.4 mg/mL formulation. Animals were dosed via intraperitoneal injections with doses adjusted by weight to ensure an 89.7 mg/Kg dose to each animal. Animals were sacrificed following 9 weeks of treatment with 3 doses administered per week (Monday, Wednesday and Friday). Blood samples were collected in EDTA tubes and then spun down in a clinical centrifuge. Plasma samples were stored at −80° C. until thawed for analysis. Tissue samples were harvested and flash frozen in liquid nitrogen and then stored at −80° C. All tissue samples were homogenized using liquid nitrogen, generating a fine powder. Extraction and plasmalogen analysis by LC-MS/MS was carried out as described above.

Pex7 hypomorph/null mice [3] = test: Open field test after 4 weeks oral treatment
Description: as §1
The open field test is a behavioral test used to evaluate the general locomotor activity, exploratory and anxiety-like behaviour of mice in response to a novel environment. The animal is placed inside a custom made square, gray acrylic box measuring 40×40×40 cm and allowed to move freely for 5 minutes while being recorded by an overhead camera (camera model). The footage was analyzed by an automated tracking system (Any-maze Video Tracking Software, Stoelting Co, Wood Dale, Ill., USA), for total distance traveled (meters) & activity (mobility in seconds) time. The total distance traveled is the total distance that animal traveled during the test and the activity measures the amount of time the animal was active during the test.

[4] = 50 mg/kg oral gavage, 5 days per week, 5 minutes test

## CC/C=C\C/C=C\C/C=C\C/C=C\C/C=C\C/C=C\CCC(=O)OC(CO/C=C\CCCCCCCCCCCCCC)COP1(=O)NCCO1 (stereo not shown) [PPI-1040, 1-(((Z)-hexadec-1-en-1-yl)oxy)-3-((2-oxido-1,3,2-oxazaphospholidin-2-yl)oxy)propan-2-yl (4Z,7Z,10Z,13Z,16Z,19Z)-docosa-4,7,10,13,16,19-hexaenoate]
Pex7 hypomorph/null mice [1]
  cerebellum tissue plasmalogen levels: did not show augmentation
  cortical tissue plasmalogen levels: did not show augmentation
  kidney plasmalogen levels: did not display a clear augmentation in any plasmalogen species; also recorded: did not display a significant level of augmentation in any plasmalogen species
  liver plasmalogen levels: increases in 16:0/18:1, 16:0/18:2 and 16:0/22:6 species reaching statistical significance and 16:0/18:1. 16:0/18:2
  lung plasmalogen levels: did not display a clear augmentation in any plasmalogen species; also recorded: did not display a significant level of augmentation in any plasmalogen species
  plasma level of the target 16:0/22:6 plasmalogen: normalizing the levels of the target 16:0/22:6 plasmalogen
  plasma levels of other 16:0 plasmalogens (re-organization at sn-2): increases in all measured 16:0 plasmalogens with the exception of 16:0/22:4; also recorded: increases in all 16:0 plasmalogens measured except 16:0/22:4
  plasma plasmalogen levels (all species measured): able to augment plasmalogen levels; also recorded: did effectively augment plasmalogen levels
  plasma plasmalogens containing 18:0 and 18:1 at sn-1: no augmentation was observed in any of those species
  plasmalogen levels in tissues (peripheral and brain): augmentation observed in the liver, skeletal muscle and small intestine
  skeletal muscle plasmalogen levels: 16:0/20:5, 16:0/22:6 and total 16:0 plasmalogen pool levels statistically increased
  small intestine plasmalogen levels: 16:0/18:1 and 16:0/18:2 species reaching a statistically significant increase and only 16:0/18:1 and 16:0/18:2 reached significance
  vinyl-acyl and alkyl-acyl glycerol levels: None of the alkyl-acyl or vinyl-acyl glycerol species measured were increased
[2]
  16:0 plasmalogen pool in serum (FIG. 5: plasma): elevated to levels significantly above control
  liver levels of the target plasmalogen (16:0/22:6): elevated to above control levels
  liver total 16:0 plasmalogen pool: elevated to above control levels
  lung levels of the target plasmalogen (16:0/22:6): elevated to control levels
  lung total 16:0 plasmalogen pool: elevated to control levels
  target 16:0/22:6 ethanolamine plasmalogen in serum (FIG. 5: plasma): elevated to levels significantly higher than control
Pex7 hypomorph/null mice [3]; [4]
  open field: time active: significant decrease in activity and normalization of the hyperactive phenotype
  open field: total distance traveled: significant decrease in activity and normalization of the hyperactive phenotype
Pex7 hypomorph/null mice [3]; 50 mg/kg oral, p<0.05
  hyperactivity phenotype: significant improvement
